The record followed here is ChEMBL document CHEMBL3046417 (2009).

Experiment [1] deals with Cnaphalocrocis medinalis. As to the kind of experiment: Reduction of fecundity in third-instar of Cnaphalocrocis medinalis in IR20 rice plant leaf at 25 ppm relative to control. The format is functional. Also on record: scale not given: the % may be the effect or the level left.
Experiment [2] has as its system Cnaphalocrocis medinalis. Nature of the experiment: Reduction of fecundity in third-instar of Cnaphalocrocis medinalis in IR20 rice plant leaf at 6 ppm relative to control. The format is functional. Also on record: scale not given: the % may be the effect or the level left.
Experiment [3] relates to Cnaphalocrocis medinalis. As to the kind of experiment: Reduction of fecundity in third-instar of Cnaphalocrocis medinalis in IR20 rice plant leaf at 3 ppm relative to control. Also on record: scale not given: the % may be the effect or the level left. The format is functional.
Experiment [4] deals with Cnaphalocrocis medinalis. As to the kind of experiment: Reduction of larval normal weight gain time in third-instar of Cnaphalocrocis medinalis in IR20 rice plant leaf at 12 ppm after 25 days (reference value: 23.5 +/- 0.56 days). The format is functional.
Experiment [5] deals with Cnaphalocrocis medinalis. Nature of the experiment: Reduction of larval normal weight gain time in third-instar of Cnaphalocrocis medinalis in IR20 rice plant leaf at 6 ppm after 25 days (reference value: 23.5 +/- 0.56 days). Type of experiment: functional.
Experiment [6] concerns Cnaphalocrocis medinalis. Nature of the experiment: Reduction of larval normal weight gain time in third-instar of Cnaphalocrocis medinalis in IR20 rice plant leaf at 3 ppm after 25 days (reference value: 23.5 +/- 0.56 days). Type of experiment: functional.
Experiment [7] concerns Cnaphalocrocis medinalis. Nature of the experiment: Reduction of larval weight gain in third-instar of Cnaphalocrocis medinalis in IR20 rice plant leaf at 6 ppm after 25 days. Type of experiment: functional.
Experiment [8] deals with Cnaphalocrocis medinalis. As to the kind of experiment: Reduction of larval weight gain in third-instar of Cnaphalocrocis medinalis in IR20 rice plant leaf at 6 ppm after 48 hr (reference value: 23.7 mg). The format is functional.
Experiment [9] deals with Cnaphalocrocis medinalis. Nature of the experiment: Reduction of larval weight gain in third-instar of Cnaphalocrocis medinalis in IR20 rice plant leaf at 12 ppm after 48 hr (reference value: 23.7 mg). The format is functional.
Experiment [10] has as its system Cnaphalocrocis medinalis. As to the kind of experiment: Reduction of larval weight gain in third-instar of Cnaphalocrocis medinalis in IR20 rice plant leaf at 3 ppm after 48 hr (reference value: 23.7 mg). Type of experiment: functional.
Experiment [11] relates to Cnaphalocrocis medinalis. As to the kind of experiment: Antifeedant activity against fourth-instar of Cnaphalocrocis medinalis in IR20 rice plant leaf assessed as leaf scraped at 12 ppm after 48 hr. Type of experiment: functional, organism-based.
Experiment [12] relates to Cnaphalocrocis medinalis. As to the kind of experiment: Antifeedant activity against fourt-instar of Cnaphalocrocis medinalis in IR20 rice plant leaf assessed as leaf scraped at 1.5 ppm after 24 hr. Type of experiment: functional.
Experiment [13] relates to Cnaphalocrocis medinalis. As to the kind of experiment: Antifeedant activity against fourth-instar of Cnaphalocrocis medinalis in IR20 rice plant leaf assessed as leaf scraped at 12 ppm after 24 hr. Type of experiment: functional.
The test system of experiment [14] is Cnaphalocrocis medinalis. As to the kind of experiment: Antifeedant activity against fourth-instar of Cnaphalocrocis medinalis in IR20 rice plant leaf at 12 ppm after 4 days. Type of experiment: functional, organism-based.
The test system of experiment [15] is Cnaphalocrocis medinalis. Nature of the experiment: Antifeedant activity against fourth-instar of Cnaphalocrocis medinalis in IR20 rice plant leaf at 1.5 to 3 ppm after 4 days. The format is functional, organism-based.
Experiment [16] concerns Cnaphalocrocis medinalis. Nature of the experiment: Antifeedant activity against fourth-instar of Cnaphalocrocis medinalis in IR20 rice plant leaf at 6 ppm after 4 days. The format is functional.
Experiment [17] concerns Cnaphalocrocis medinalis. Nature of the experiment: Reduction of egg fertility in third-instar of Cnaphalocrocis medinalis in IR20 rice plant leaf assessed as oviposition deterrence index at 6 to 12 ppm. Type of experiment: functional, organism-based.
Experiment [18] concerns Cnaphalocrocis medinalis. As to the kind of experiment: Reduction of egg production in third-instar of Cnaphalocrocis medinalis in IR20 rice plant leaf assessed as oviposition deterrence index at 12 ppm relative to control. The format is functional. Also on record: scale not given: the % may be the effect or the level left.
Experiment [19] has as its system Cnaphalocrocis medinalis. Nature of the experiment: Reduction of egg production in third-instar of Cnaphalocrocis medinalis in IR20 rice plant leaf assessed as oviposition deterrence index at 6 ppm relative to control. The format is functional. Also noted: scale not given: the % may be the effect or the level left.

Activity calls are given as the source filed them. The rule behind the calls is not given here.

Turning to `CC(C)=CC(=O)C[C@@H](C)[C@H]1CC[C@@]2(C)[C@@H]3CC[C@@H]4[C@@]5(CC(=O)OC[C@@]4(C)C(=O)O)C[C@@]35CC[C@]12C` [BEDDOMEILACTONE], the Activity with Cnaphalocrocis medinalis [1] came out at 3%; in the experiment on Cnaphalocrocis medinalis [2] it was 19%; in the experiment on Cnaphalocrocis medinalis [3] it was 39%; in the experiment with Cnaphalocrocis medinalis [7], 12.1 mg; in the experiment on Cnaphalocrocis medinalis [8], 10.2 mg; in the experiment with Cnaphalocrocis medinalis [9] it was 7.2 mg. Moreover, the Activity with Cnaphalocrocis medinalis [10] is on record as 13.6 mg; in the experiment with Cnaphalocrocis medinalis [12], 8.97 cm2; in the experiment on Cnaphalocrocis medinalis [13], 0.87 cm2; in the experiment with Cnaphalocrocis medinalis [16], 80%; in the experiment on Cnaphalocrocis medinalis [18], 83%; in the experiment with Cnaphalocrocis medinalis [19], 60%. For the same molecule, the values for the Time in the experiment with Cnaphalocrocis medinalis [4], in the experiment with Cnaphalocrocis medinalis [5] and in the experiment with Cnaphalocrocis medinalis [6] were 48.3 days, 39.2 days and 37.2 days, respectively. The result with Cnaphalocrocis medinalis [11], with Cnaphalocrocis medinalis [14], in the experiment with Cnaphalocrocis medinalis [15] and in the experiment on Cnaphalocrocis medinalis [17] was Active.
